Target: HSP27 (Homo sapiens, UniProt P04792)
Experiment: Aggregation assay: HSP27 chaperone activity on heat-induced aggregation of citrate synthase
Format: biochemical
Settings: compound 10 μM; 1.44 μM CS, 481 nM HSP27, 43° C., 500 nm
Protocol: To test how small molecules affect the chaperone activity of HSP27, misfolding and aggregation of citrate synthase (CS), a well-known in vitro client protein of HSP27, was measured. Citrate synthase misfolds and aggregates when exposed to heat shock at 43° C. This heat denaturation is prevented or delayed in the presence of HSP27 (CS+HSP27) (Jakob et al. (1993)). […] The samples were incubated at 43° C. and the aggregation behavior of CS was monitored in a spectrometer (PerkinElmer LS55) at a wavelength of 500 nm. Substances inhibiting HSP27's chaperone activity lead to continued denaturation of the client protein and its aggregation in solution. This inhibition correlates with the strength of the interaction between HSP27 and the test substance, which is related to its binding efficiency.
In the reference experiment BVDU (CS+HSP27+BVDU) was tested at a concentration of 750 μM as previously described (Heinrich et al. (2016)).
The compounds according to the invention were tested at a concentration of 10 μM.

Sequence of HSP27 (P04792 whole entry): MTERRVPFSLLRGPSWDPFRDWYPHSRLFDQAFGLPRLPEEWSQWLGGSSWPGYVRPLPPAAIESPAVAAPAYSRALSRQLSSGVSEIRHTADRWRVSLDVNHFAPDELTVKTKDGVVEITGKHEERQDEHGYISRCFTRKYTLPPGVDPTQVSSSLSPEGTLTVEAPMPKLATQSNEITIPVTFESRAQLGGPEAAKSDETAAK

SMILES | aggregation value related to the value from reference experiment (CS + HSP27 + BVDU), which was set at 1.0
O=C(Nc1ccc(-n2ccc(=O)[nH]c2=O)cc1)c1cccc(-c2cccc(Cl)c2)c1 [Compound 43, 3′-chloro-N-(4-(2,4-dioxo-3,4-dihydro-pyrimidin-1(2H)-yl)phenyl)-[1,1′-biphenyl]-3-carboxamide] | 0.79
O=c1ccn(-c2ccc(-n3cc(-c4ccc(Cl)c(Cl)c4)nn3)cc2)c(=O)[nH]1 [Compound 56, 1-(4-(4-(3,4-Dichlorophenyl)-1H-1,2,3-triazol-1-yl)phenyl)pyrimidine-2,4(1H,3H)-dione] | 1.39
O=C(Cc1cn(-c2ccc(-n3ccc(=O)[nH]c3=O)cc2)nn1)NCc1ccc(Cl)c(Cl)c1 [Compound 53] | 1.67
Cc1cc(-n2ccc(=O)[nH]c2=O)ccc1NC(=O)Cc1cccc(-c2ccc(Cl)c(Cl)c2)c1 [Compound 18, 2-(3′,4′-dichloro-[1,1′-biphenyl]-3-yl)-N-(4-(2,4-dioxo-3,4-dihydro-pyrimidin-1(2H)-yl)-2-methyl-phenyl)acetamide] | 1
O=C(Cc1cccc(-c2ccc(Cl)cc2)c1)Nc1ccc(-n2cc(F)c(=O)[nH]c2=O)cc1 [Compound 16, 2-(4′-chloro-[1,1′-biphenyl]-3-yl)-N-(4-(5-fluoro-2,4-dioxo-3,4-dihydro-pyrimidin-1(2H)-yl)phenyl) acetamide] | 1.04
COc1ccc(-c2cccc(CC(=O)Nc3ccc(-n4cc(C)c(=O)[nH]c4=O)cc3)c2)cc1Cl [Compound 1, 2-(3′-Chloro-4′-methoxy-[1,1′-biphenyl]-3-yl)-N-(4-(5-methyl-2,4-dioxo-3,4-dihydropyrimidin-1(2H)-yl)phenyl)acetamide] | 1.76
Cc1ccc(-c2cccc(C(=O)Nc3ccc(-n4cc(C)c(=O)[nH]c4=O)cc3)c2)cc1Cl [Compound 49, 3′-chloro-4′-methyl-N-(4-(5-methyl-2,4-dioxo-3,4-dihydro-pyrimidin-1(2H)-yl)phenyl)-[1,1′-biphenyl]-3-carboxamide] | 1.16
Cc1cn(-c2ccc(NC(=O)Cc3cccc(-c4cccc(OC(F)(F)F)c4)c3)cc2)c(=O)[nH]c1=O [Compound 11, N-(4-(5-methyl-2,4-dioxo-3,4-dihydro-pyrimidin-1(2H)-yl)phenyl)-2-(3′-(trifluoro-methoxy)-[1,1′-biphenyl]-3-yl) acetamide] | 1.28
COc1cccc(-c2cccc(CC(=O)Nc3ccc(-n4cc(C)c(=O)[nH]c4=O)cc3)c2)c1 [Compound 22, 2-(3′-methoxy-[1,1′-biphenyl]-3-yl)-N-(4-(5-methyl-2,4-dioxo-3,4-dihydro-pyrimidin-1(2H)-yl)phenyl) acetamide] | 0.91
O=C(Cc1cccc(-c2ccc(Cl)c(Cl)c2)c1)Nc1cccc(-n2ccc(=O)[nH]c2=O)c1 [Compound 40, 2-(3′,4′-dichloro-[1,1′-biphenyl]-3-yl)-N-(3-(2,4-dioxo-3,4-dihydro-pyrimidin-1(2H)-yl)phenyl) acetamide] | 1.8
COc1ccc(-c2cccc(CC(=O)Nc3ccc(-n4cc(Cl)c(=O)[nH]c4=O)cc3)c2)cc1Cl [Compound 30, N-(4-(5-chloro-2,4-dioxo-3,4-dihydro-pyrimidin-1(2H)-yl)phenyl)-2-(3′-chloro-4′-methoxy-[1,1′-biphenyl]-3-yl)acetamide] | 0.79
CC(C)Oc1ccc(-c2cccc(CC(=O)Nc3ccc(-n4ccc(=O)[nH]c4=O)cc3)c2)cc1Cl [Compound 8, 2-(3′-chloro-4′-isopropoxy-[1,1′-biphenyl]-3-yl)-N-(4-(2,4-dioxo-3,4-dihydro-pyrimidin-1(2H)-yl)phenyl) acetamide] | 1.34
O=C(Cc1cccc(-c2ccc(Cl)cc2)c1)Nc1ccc(-n2ccc(=O)[nH]c2=O)cc1 [Compound 24, 2-(4′-chloro-[1,1′-biphenyl]-3-yl)-N-(4-(2,4-dioxo-3,4-dihydro-pyrimidin-1(2H)-yl)phenyl) acetamide] | 0.88
Cc1ccc(-c2cccc(C(=O)Nc3ccc(-n4ccc(=O)[nH]c4=O)cc3)c2)cc1Cl [Compound 50, 3′-chloro-N-(4-(2,4-dioxo-3,4-dihydro-pyrimidin-1(2H)-yl)phenyl)-4′-methyl-[1,1′-biphenyl]-3-carboxamide] | 0.73
O=C(Cc1cccc(-c2ccc(Cl)c(Cl)c2)c1)Nc1ccc(-n2ccc(=O)[nH]c2=O)c(Cl)c1 [Compound 21, N-(3-chloro-4-(2,4-dioxo-3,4-dihydro-pyrimidin-1(2H)-yl)phenyl)-2-(3′,4′-dichloro-[1,1′-biphenyl]-3-yl)acetamide] | 0.94
O=C(Cc1cccc(-c2cccc(OC(F)(F)F)c2)c1)Nc1ccc(-n2ccc(=O)[nH]c2=O)c(Cl)c1 [Compound 19, N-(3-chloro-4-(2,4-dioxo-3,4-dihydro-pyrimidin-1(2H)-yl)phenyl)-2-(3′-(trifluoro-methoxy)-[1,1′-biphenyl]-3-yl) acetamide] | 0.97
COc1cccc(-c2cccc(C(=O)Nc3ccc(-n4cc(C)c(=O)[nH]c4=O)cc3)c2)c1 [Compound 46, 3′-methoxy-N-(4-(5-methyl-2,4-dioxo-3,4-dihydro-pyrimidin-1(2H)-yl)phenyl)-[1,1′-biphenyl]-3-carboxamide] | 0.75
O=C(Nc1ccc(Cn2ccc(=O)[nH]c2=O)cc1)c1cccc(-c2cccc(OC(F)(F)F)c2)c1 [Compound 35, N-(4-((2,4-dioxo-3,4-dihydro-pyrimidin-1(2H)-yl)methyl)phenyl)-3′-(trifluoro-methoxy)-[1,1′-biphenyl]-3-carboxamide] | 1.55
COc1ccc(-c2cccc(CC(=O)Nc3ccc(-n4ccc(=O)[nH]c4=O)c(Cl)c3)c2)cc1Cl [Compound 13, 2-(3′-chloro-4′-methoxy-[1,1′-biphenyl]-3-yl)-N-(3-chloro-4-(2,4-dioxo-3,4-dihydro-pyrimidin-1(2H)-yl)phenyl) acetamide] | 1.21
O=C(Cc1cn(-c2ccc(-n3ccc(=O)[nH]c3=O)cc2)nn1)Nc1ccc(Cl)c(Cl)c1 [Compound 52, N-(3,4-dichlorophenyl)-2-(1-(4-(2,4-dioxo-3,4-dihydropyrimidin-1(2H)-yl)phenyl)-1H-1,2,3-triazol-4-yl)acetamide] | 1
O=C(Cc1cccc(-c2cccc(OC(F)(F)F)c2)c1)Nc1ccc(-n2ccc(=O)[nH]c2=O)cc1F [Compound 28, N-(4-(2,4-dioxo-3,4-dihydro-pyrimidin-1(2H)-yl)-2-fluoro-phenyl)-2-(3′-(trifluoro-methoxy)-[1,1′-biphenyl]-3-yl) acetamide] | 0.82
Cc1cccc(-c2cccc(CC(=O)Nc3ccc(-n4ccc(=O)[nH]c4=O)cc3)c2)c1 [Compound 33, N-(4-(2,4-dioxo-3,4-dihydro-pyrimidin-1(2H)-yl)phenyl)-2-(3′-methyl-[1,1′-biphenyl]-3-yl) acetamide] | 0.69
Cc1ccc(-c2cccc(CC(=O)Nc3ccc(-n4ccc(=O)[nH]c4=O)cc3)c2)cc1Cl [Compound 29, 2-(3′-chloro-4′-methyl-[1,1′-biphenyl]-3-yl)-N-(4-(2,4-dioxo-3,4-dihydro-pyrimidin-1(2H)-yl)phenyl) acetamide] | 0.8
O=C(NCc1cn(-c2ccc(-n3ccc(=O)[nH]c3=O)cc2)nn1)c1ccc(Cl)c(Cl)c1 [Compound 54, 3,4-Dichloro-N-((1-(4-(2,4-dioxo-3,4-dihydropyrimidin-1(2H)-yl)phenyl)-1H-1,2,3-triazol-4-yl)methyl)benzamide] | 1.42
COc1ccc(-c2cccc(C(=O)Nc3ccc(Cn4ccc(=O)[nH]c4=O)cc3)c2)cc1Cl [Compound 37, 3′-chloro-N-(4-((2,4-dioxo-3,4-dihydro-pyrimidin-1(2H)-yl)methyl)phenyl)-4′-methoxy-[1,1′-biphenyl]-3-carboxamide] | 0.91
O=C(Nc1ccc(Cn2ccc(=O)[nH]c2=O)cc1)c1cccc(-c2cccc(Cl)c2)c1 [Compound 36, 3′-chloro-N-(4-((2,4-dioxo-3,4-dihydro-pyrimidin-1(2H)-yl)methyl)phenyl)-[1,1′-biphenyl]-3-carboxamide] | 1.23

From US11214564B2, “Compounds with thymine skeleton for use in medicine” (TECHNISCHE UNIVERSITÄT DRESDEN, priority 2019, dated 2022)
